This data set has as its system B16-F10 (murine melanoma). Briefly: in vitro. The class given is cell-based. The source says: For selected compounds, 6a–6f, we performed a determination of the cytotoxicity in a wider variety of cancer and non-cancerous cell lines (see Table S2, Supplementary Materials) in order to learn the characteristic features of selectivity or the similarity of biological properties.
The HT-1080 (human connective tissue fibrosarcoma, ATCC® CCL-121™), MH-22A (mouse hepatocarcinoma, ECACC Cat. No. 96121721), A-549 (human lung carcinoma, ATCC® CCL-185™), NIH3T3 (Swiss Albino mouse embryo fibroblast, ECACC Cat. No. 93061524), Hek293 (human embryonic kidney, ATCC® CRL-1573™), BHK-21 (Syrian hamster kidney, ATCC® CCL-10™), A-431 (human epidermoid carcinoma, ATCC® CRL-1555™), Saos-2 (human osteosarcoma, ATCC® HTB-85™), HeLa (human epitheloid cervix carcinoma, ATCC® CCL-2™), U937 (human myeloid leukaemia, ATCC® CRL-1593.2™), C6 (rat glioma, ATCC® CCL-107™), and B16-F10 (murine melanoma, ATCC® CRL-6475™) cell lines were obtained from the American Type Culture Collection (ATCC) and European Collection of Authenticated Cell Cultures (ECACC).
HT-1080, MH-22A, A-549, NIH3T3, BHK-21, A-431, HeLa, and B16-F10 cells were cultured in Dulbecco’s Modified Eagle’s Medium (DMEM) with 2 mM glutamine and 10% foetal bovine serum (FBS). Hek293 cells were cultured in Eagle’s Minimum Essential Medium with 10% foetal bovine serum. U937 cells were cultured in RPMI-1640 Medium with 2 mM glutamine and 10% foetal bovine serum. C6 cells were cultured in Ham’s F12 Medium with 2 mM glutamine and 10% foetal bovine serum. Saos-2 cells were cultured in McCoy’s 5a Medium with 2 mM glutamine and 10% foetal bovine serum. The cells were incubated at 37 °C with 5% CO2, 95% air, and complete humidity. Once ~90% confluence was reached, they were detached using 0.05% trypsin/EDTA and counted. The cells were plated at optimally determined densities for the logarithmic phase of growth. These cells were then suspended at a concentration of 4000 cells/well for HT-1080, MH-22A, A-549, NIH3T3, BHK-21, A-431, HeLa, B16-F10, Hek293, and Saos-2 cells and a concentration of 9000 cells/well for U937, C6, Hek293, and GM08402 cells and added onto a 96-well plate. For background absorption, some wells remained cell free, i.e., as a blank control. Cells were incubated for 72 h at 37 °C and 5% CO2 where they were exposed to a media containing serial dilutions of the investigated compounds (n = 3). Cell viability was measured using the 3-(4,5-dimethylthiazol-2-yl)-2,5-diphenyl-tetrazolium bromide (MTT) assay. In brief, after incubating with compounds, the culture medium was removed and fresh medium with 0.2 mg/mL MTT was added to each well of the plate. After incubation (3 h, 37 °C, 5% CO2), the medium with MTT solution was removed and replaced with 200 µL DMSO and 25 µL Sorenson’s glycine buffer (glycine 0.1 M, NaCl 0.1 M, pH: 10.5 with 0.1 M NaOH). The plate was shaken for 15 min at room temperature and the optical density (OD) of the wells was determined using a multichannel spectrophotometer (Thermo Scientific Multiskan EX) at 540 nm. The quantity of the control cells was taken in calculations as 100%. The IC50 value was calculated using the program Graph Pad Prism® 3.0. […]

This is an account of results in PMC10535741, “Styrylpyridinium Derivatives for Fluorescent Cell Imaging” (Pharmaceuticals, 2023).

Turning to `CCCCCCCCCCCCCCCC[n+]1ccc(C=Cc2cc(OC)c(OC)c(OC)c2)cc1.[Br-]` [Compound 6b], the “Cytotoxicity IC50 B16-F10” value is 0.63 µg/mL.
